Converted amounts (≈) assume the structure as drawn. “Also recorded” adds a separate entry of the source. Residues, ends and D or L forms follow the SMILES beside them. No end group written: not given here.
Tests used:
porcine red blood cells = assay: Hemolysis assay (HC50); assay type: cell-based, pig; details: for hemolytic activity (in words): porcine RBCs, highest concentration tested 128 µg/mL
Experimental: Peptides were evaluated for toxicity using three independent hemolysis experiments. Whole blood from healthy donor pigs, supplemented with Na Citrate, was purchased from Lampire Biological Laboratories (Pipersville, PA, USA). Red blood cells (RBCs) were washed and isolated by three centrifugation cycles using Roswell Park Memorial Institute medium (RPMI; Thermo-Fisher Scientific) to create a 1% (v/v) RBC solution. […] Following a minimum 30 min incubation at 37 °C, plates were centrifuged and ½ volume from each supernatant was transferred to a new 96-well plate. The absorbance of these wells was measured at 415 nm. To quantify hemolytic activity and determine the AMP concentration that lyses 50% of the RBCs (HC50), absorbance reading from wells containing RBCs treated with 11 μL of a 2% TritonX-100 detergent solution (TX-100) or RPMI (AMP solvent-only) were used to define 100% and 0% hemolysis, respectively. All centrifugation steps were performed at 500× g for five minutes in an Allegra-6R centrifuge (Beckman Coulter, Brea, CA, USA).

[1] = test system: Staphylococcus aureus ATCC 29213; assay type: cell-based; details: broth microdilution in MHB, peptide 128 down to 0.5 µg/mL, 20–24 h at 37 °C, no visible growth; range of three independent experiments
Method in brief: (§1)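 CLSI broth microdilution in MHB, adapted for cationic peptides, in polypropylene plates; peptides 2-fold from 128 to 0.5 µg/mL, inoculum 2–8 × 10^5 cfu/mL. Incubated 20–24 h at 37 °C; MIC = lowest concentration with no visible growth.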

[2] = test system: Salmonella enterica serovar Enteritidis (human clinical isolate); assay type: cell-based; details: broth microdilution in MHB, peptide 128 down to 0.5 µg/mL, 20–24 h at 37 °C, no visible growth; range of three independent experiments
Method in brief: as §1

[3] = test system: Escherichia coli ATCC 25922; assay type: cell-based; details: broth microdilution in MHB, peptide 128 down to 0.5 µg/mL, 20–24 h at 37 °C, no visible growth; range of three independent experiments
Method in brief: as §1

HEK293 cells = assay: alamarBlue cell viability assay (cytotoxicity); assay type: cell-based, human
Experimental: The human embryonic kidney cell line HEK293 and the corresponding growth media and supplements were purchased from the ATCC. The cells were maintained in Eagle’s Minimum Essential Medium (EMEM) supplemented with 10% fetal bovine serum (FBS) and 1% Penicillin-Streptomycin solution and grown in a 5% CO2 incubator at 37 °C. Approximately 1 × 10^4 cells were distributed to each well of a 96-well flat-bottom cell culture plate (Corning #3595, Corning, NY, USA). Cells were incubated overnight to allow them to adhere. Lyophilized 80 µg peptide aliquots were resuspended to 1.28 mg/mL with UltraPure deionized water and serially diluted in polypropylene 96-well microtiter plates from 128-0.5 µg/mL. TX-100 was diluted to 2% in UltraPure deionized water and added as a positive control. Complete growth medium was added to the peptides and TX-100 containing wells. Spent growth medium of wells with adhered cells was replaced with the contents of wells containing serially diluted peptides or TX-100. Cells were incubated for four hours at 37 °C in 5% CO2 incubator. Growth medium containing peptides or TX-100 was replaced with fresh growth medium containing 10% (v/v) alamarBlue (Bio-Rad Laboratories, Hercules, CA, USA) and incubated for 20 h. Fluorescence was measured at excitation of 540 nm and emission of 590 nm in a Cytation 5 plate reader (Agilent BioTek, Winooski, VT, USA) and results recorded and analyzed with Gen5 software (Agilent BioTek, Winooski, VT, USA). The average fluorescence reads of TX-100 and growth media only wells were used to calculate 0% and 100% cell viability, respectively. The percentage of viable cells at each peptide concentration was determined by: cell viability%=1−fluorescence100% viable− fluorescencepeptide/fluorescence100% viable−fluorescence0% viable×100%

Row | Compound | hemolytic activity (in words) (porcine red blood cells) | MIC, S. aureus ATCC 29213 [1] [µg/mL] | MIC, Salmonella Enteritidis [2] [µg/mL] | MIC, E. coli ATCC 25922 [3] [µg/mL] | HEK293 cell viability (HEK293 cells; at 128 µg/mL, mean of three independent experiments) [%] | cytotoxicity to HEK293 cells (in words) (HEK293 cells; at concentrations lower than 128 µg/mL) | toxicity to HEK293 cells (in words) (HEK293 cells; any of the concentrations tested, up to 128 µg/mL) | HC50 (hemolytic 50 concentration) (porcine red blood cells; 1% porcine RBCs in RPMI, peptide 128 down to 1 µg/mL, minimum 30 min at 37 °C, absorbance 415 nm, three independent experiments) [µg/mL]
1 | RPRPQQVPPRPPHPRLRR [PaVa1] | not toxic | – | – | – | – | – | – | –
2 | KIKIPWGKVKDFLVGGMKAVGKK [TeBi1] | not hemolytic at the concentrations tested | 4 to 8 | 4 to 8 | 1 to 2 | 40 | low or no cytotoxicity at lower concentrations | – | –
3 | SWLSKSVKKLVNKKNYTRLEKLAKKKLFNE [TeRu4] | not hemolytic at the concentrations tested; also recorded: not toxic | – | 2 to 4 | 1 | – | – | not toxic | –
4 | CC[C@H](C)[C@H](NC(=O)CNC(=O)[C@H](CCCNC(=N)N)NC(=O)[C@H](CC(C)C)NC(=O)[C@H](CC(C)C)NC(=O)CN)C(=O)N[C@@H](CC(C)C)C(=O)NCC(=O)N[C@@H](C)C(=O)NCC(=O)N[C@@H](CCCCN)C(=O)N[C@@H](CCCCN)C(=O)N[C@H](C(=O)N[C@H](C(=O)N[C@@H](CS)C(=O)NCC(=O)N[C@@H](CC(C)C)C(=O)N[C@@H](CO)C(=O)NCC(=O)N[C@@H](CC(C)C)C(=O)N[C@@H](CS)C(=O)O)C(C)C)[C@@H](C)CC [OdMa2] (H-GLLRGILGAGKKIVCGLSGLC-OH) | – | 4 to 8 | 8 to 16 | 4 (≈ 1.97 µM) | – | – | – | 128
5 | CC[C@H](C)[C@H](NC(=O)[C@H](CO)NC(=O)[C@@H]1CCCN1C(=O)[C@H](CC(C)C)NC(=O)[C@@H](NC(=O)[C@H](CCCCN)NC(=O)[C@H](C)NC(=O)[C@H](C)NC(=O)[C@H](CC(C)C)NC(=O)CNC(=O)[C@H](C)NC(=O)[C@@H](NC(=O)[C@@H](NC(=O)[C@@H]1CCCN1C(=O)[C@H](CC(C)C)NC(=O)[C@@H](N)Cc1ccccc1)C(C)C)C(C)C)C(C)C)C(=O)N[C@H](C(=O)N[C@@H](CS)C(=O)N[C@@H](C)C(=O)N[C@H](C(=O)N[C@H](C(=O)N[C@@H](CCCCN)C(=O)N[C@@H](CCCCN)C(=O)N[C@@H](CS)C(=O)O)[C@@H](C)O)C(C)C)[C@@H](C)CC [RaCa15] (H-FLPVVAGLAAKVLPSIICAVTKKC-OH; N-terminus and C-terminus assumed) | – | 4 to 8 | > 128 | 8 to 16 | – | – | – | –
6 | GILSGLLGAGKKIVCGLSGMC [RaOm2, rAMPage-discovered AMP, Rana omeimontis] | – | > 128 | > 128 | 64 to 128 | – | – | – | –
7 | KYHHIKLRHGRHRRTIH [PaVa2] | – | > 128 | > 128 | > 128 | – | – | – | –
8 | VPFGLKPR [TeRu1] | – | > 128 | > 128 | > 128 | – | – | – | –
9 | VKCRVRR [ApMe1] | – | > 128 | > 128 | > 128 | – | – | – | –
10 | CC(C)C[C@H](NC(=O)CNC(=O)[C@H](CO)NC(=O)[C@H](CC(C)C)NC(=O)CNC(=O)[C@H](CS)NC(=O)[C@H](CC(C)C)NC(=O)[C@@H](NC(=O)[C@H](CCCCN)NC(=O)[C@H](CCCCN)NC(=O)CNC(=O)[C@@H](NC(=O)CNC(=O)[C@H](CC(C)C)NC(=O)[C@@H](NC(=O)CNC(=O)[C@H](CO)NC(=O)[C@H](CC(C)C)NC(=O)[C@H](CC(C)C)NC(=O)CN)C(C)C)C(C)C)C(C)C)C(=O)N[C@@H](CS)C(=O)O [OdMa7] (H-GLLSGVLGVGKKVLCGLSGLC-OH; N-terminus and C-terminus assumed) | – | 16 to 32 | 128 (≈ 64.9 µM) | 8 to 16 | – | – | – | –

From publication PMC9774241, “Associating Biological Activity and Predicted Structure of Antimicrobial Peptides from Amphibians and Insects” (Antibiotics, 2022)
